The conditions of series [1]: cited from earlier work.
The test system of another series is CYP3A4/5. Nature of the series: CYP inhibition in pooled human liver microsomes. It is filed as in vitro ADME. The settings on record: without preincubation, pooled human liver microsomes. Background: Liver microsomes are a subcellular fraction often used to study metabolism.

Read-outs that look alike come from different tables or passages of the source.

Method for CYP3A4/5: Microsomal reactions were terminated by adding 100 μL of cold (4°C) methanol containing appropriate internal standard. Aliquots (150 μL) of each sample were centrifuged and the supernatant was used for substrate analysis by ultra‐performance liquid chromatography with tandem mass spectrometry (UPLC‐MS/MS) on the day of incubations.
Change in substrate concentration was measured to determine the extent of CYP‐isoform inhibition. The 30‐minute preincubations were performed to determine whether there was time‐dependent inhibition of any CYP isoform (CYP1A2, 2B6, 2C8, 2C9, 2C19, 2D6, and 3A4/5). Untreated control contained only solvent, dimethyl sulfoxide (≤0.5% [v/v]).

On to `CCC(C)n1ncn(-c2ccc(N3CCN(c4ccc(OCC5COC(Cn6cncn6)(c6ccc(Cl)cc6Cl)O5)cc4)CC3)cc2)c1=O` (centres unmarked) [itraconazole], for which the Cmax in series [1] (after 15‐day, 200 mg daily oral dosing) is 1.52 µM.

Take `CC[C@@H]([C@H](C)O)n1ncn(-c2ccc(N3CCN(c4ccc(OC[C@@H]5CO[C@@](Cn6cncn6)(c6ccc(F)cc6F)C5)cc4)CC3)cc2)c1=O` [posaconazole, reference compound]: in series [1] (14‐day oral 400 mg twice daily, steady state), the “Mean concentration in pulmonary alveolar cells relative to lung epithelial lining fluid and plasma” value is “over 30 fold”. Further, in series [1] (after 200 mg three times daily oral dosing), the Cmax was 0.83 µM. The IC50 in the series on CYP3A4/5 (probe midazolam, substrate midazolam) was 0.32 µM; in the series with CYP3A4/5 (probe testosterone, substrate testosterone) it was 0.081 µM.

In general, Cmax refers to the peak of the concentration-time curve. Broadly, the IC50 is the concentration needed to halve the response being measured.
